Columns and labels:
RhoE promoter = RhoE promoter luc2 luciferase reporter screen for inducers of RhoE expression; assay type: cell-based; conditions: luminescence at 24 hours; for Composite Z value (induction of RhoE expression): Table 1, two replicates per compound; for Composite Z: Table 2, two replicates
Description: To isolate compounds that can activate RhoE pathway in keratinocytes and protect against UVB exposure, a robust and sensitive chemical genetics approach was developed for the identification of small molecules that induce RhoE expression. Briefly, a reporter construct was created that included the RhoE promoter operatively linked to the luc2 luciferase reporter gene (FIG. 1A). Stable cell lines were produced that expressed the reporter construct, and the cells were plated in 384 well plates at ˜10,000 cells per well. The library test compounds were added to the plated cells at two replicates per compound, and the cells were incubated with the compounds for 24 hours. Luminescence was measured at 24 hours using a plate reader. The data were analyzed using Spotfire.

UVB damaged mouse skin = UVB damaged mouse skin treated topically (TUNEL, CPD, phospho-H2AX, RhoE staining); assay type: in vivo
Description: Next, it was investigated whether kaempferol has any protective effect and or DNA repair potential on UVB damaged mouse skin. The dorsal hair of 8-week-old, C57BL/6 mice was trimmed and fine hair was removed by application of a hair-remover, 2 days before UVB exposure. Restrained mice were UVB irradiated at 120 mJ/cm^2 and treated with 0.5 mM kaempferol in 50 μl DMSO or DMSO control. The skin was removed from euthanized mice at various times after UVB exposure, fixed immediately in 4% neutral buffered paraformaldehyde, embedded in OCT, and sectioned at 8-μm thickness. Apoptotic cells were detected in skin sections harvested 16 hours after exposure to UVB, by the terminal nucleotidyl transferase-mediated nick end labeling (TUNEL) assay (Roche Applied Science, Germany) according to the manufacturer's instructions. […] The levels of an activated form of H2AX (Ser139) that is known to be activated and bound at the sites of DNA damage in response to UVB damage were also measured by staining with Anti-Phospho-H2AX (Ser139) antibodies (Upstate Cell Signaling Solutions, New York).

[1] = test system: HaCaT human keratinocyte cells; assay: UVB-induced cell death in HaCaT keratinocytes; assay type: cell-based; conditions: 1 and 2.5 μM; UVB 30 mJ/cm^2; 24 hours later; FIG. 4
Description: To determine whether RhoE inducing compounds have the protective effect on the UVB damage-mediated cell death, kaempferol-treated (1 and 2.5 μM) HaCaT human keratinocyte cells were exposed to UVB (30 mJ/cm^2), and 24 hours later cell death rate was examined (FIG. 4).

RhoE = assay: Western blot of RhoE and p53 expression after kaempferol treatment; assay type: cell-based; conditions: FIG. 3; relative to p53 expression
Description: FIG. 3 is a Western blot depicting RhoE and p53 expression following treatment with the indicated amounts of kaempferol.

SMILES | Composite Z value (induction of RhoE expression) (RhoE promoter) | other results
CC[C@H]1OC(=O)[C@H](C)[C@@H](O[C@H]2C[C@@](C)(OC)[C@@H](O)[C@H](C)O2)[C@H](C)[C@@H](O[C@@H]2O[C@H](C)C[C@H](N(C)C)[C@H]2O)[C@](C)(O)C[C@@H](C)C(=O)[C@H](C)[C@@H](O)[C@]1(C)O [erythromycin stearate, reference compound] | 3.1488 | 
COc1ccc(-c2cc(=O)c3c(OC(C)=O)cc(OC(C)=O)cc3o2)cc1 [acacetin diacetate] | 3.977 | 
CCCSc1ccc2nc(NC(=O)OC)[nH]c2c1 [Albendazole, reference compound] | 3.0534 | 
CCN(CC)CCOc1ccc2c(c1)C(=O)c1cc(OCCN(CC)CC)ccc1-2 [Tilorone, reference compound] | 3.4862 | 
O=c1cc(-c2ccccc2)oc2cc(O)cc(O)c12 [Chrysin] |  | Composite Z (RhoE promoter): 5.4731
CCCCOC(=O)c1ccc(O)cc1 [Butylparaben] | 2.6043 | 
O=c1cc(-c2ccc(O)cc2)oc2cc(O)cc(O)c12 [Apigenin] |  | Composite Z (RhoE promoter): 5.3515; Composite Z (RhoE promoter; listed as apigenin): 5.8729
O=c1c2ccccc2oc2ccccc12 [Xanthone] | 3.79 | 
O=c1c(O)c(-c2ccc(O)cc2)oc2cc(O)cc(O)c12 [Kaempferol] | 6.2959 | Composite Z (RhoE promoter): 6.2959; Apoptosis in epidermis (TUNEL) (UVB damaged mouse skin; 0.5 mM in 50 μl DMSO, UVB 120 mJ/cm^2, 16 hours after exposure, vs DMSO, FIG. 5): inhibited apoptosis induced by UVB damage in epidermis; Cyclobutane pyrimidine dimer (CPD) formation in epidermis (TDM-2 staining) (UVB damaged mouse skin; 0.5 mM, UVB 120 mJ/cm^2, FIGS. 6A-6C): suppressed pyrimidine dimmer formation; Levels of activated form of H2AX (Ser139) in skin (UVB damaged mouse skin; 0.5 mM, UVB 120 mJ/cm^2, FIGS. 7A-7C): significantly decreased; RhoE expression in suprabasal area of epidermis (UVB damaged mouse skin; 0.5 mM, UVB exposure, FIG. 8): enhanced; UVB-induced cell death rate [1]: suppression of UVB-induced cell death; RhoE expression (Western blot) (RhoE): able to activate RhoE expression in a p53-independent manner
CCCOc1ccc2nc(NC(=O)OC)[nH]c2c1 [Oxibendazole, reference compound] | 2.2003 | 
COc1ccc(C(=O)/C=C/c2ccccc2)cc1 [4′-methoxychalcone] | 3.8036 | 
CC(C)C[C@H](NC(=O)OCC1c2ccccc2-c2ccccc21)C(=O)O [n-(9-fluorenylmethoxycarbonyl)-1-leucine] | 2.8734 | 
CC(=O)Oc1ccc(-c2cc(=O)c3c(OC(C)=O)cc(OC(C)=O)cc3o2)cc1 [apigenin triacetate] | 4.6992 | 
COc1ccccc1-c1cc(=O)c2cccc(OC)c2o1 [8,2′-dimethoxyflavone] | 2.7326 | 
